Among the data in ChEMBL document CHEMBL1130935, “Synthesis of a paclitaxel isomer: C-2-acetoxy-C-4-benzoate paclitaxel” (Bioorg Med Chem Lett, 1998) are Activity values, retold here.

Active and inactive are the calls of the source. The calls are words filed in the database; no cut-off is given here.

For this test, the target named is Tubulin alpha chain (Sus scrofa) (UniProt P02550). In words: Compound was tested for inhibitory activity against tubulin by tubulin polymerization assay; Inactive. It is filed as functional.
Chain of Tubulin alpha chain (Sus scrofa) (P02550 whole entry, looked up): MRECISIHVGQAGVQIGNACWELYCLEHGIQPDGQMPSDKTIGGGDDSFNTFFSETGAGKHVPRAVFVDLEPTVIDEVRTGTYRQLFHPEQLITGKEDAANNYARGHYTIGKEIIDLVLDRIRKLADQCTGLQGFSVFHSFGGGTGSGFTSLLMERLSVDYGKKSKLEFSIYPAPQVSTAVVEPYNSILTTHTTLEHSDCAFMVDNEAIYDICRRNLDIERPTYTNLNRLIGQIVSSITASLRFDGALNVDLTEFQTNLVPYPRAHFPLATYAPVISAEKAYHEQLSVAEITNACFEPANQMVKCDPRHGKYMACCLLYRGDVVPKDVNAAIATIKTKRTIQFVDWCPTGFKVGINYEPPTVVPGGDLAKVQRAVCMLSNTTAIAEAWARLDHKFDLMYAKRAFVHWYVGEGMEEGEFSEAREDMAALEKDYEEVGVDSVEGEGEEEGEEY

In the case of `CC(=O)O[C@H]1C(=O)[C@]2(C)[C@@H](O)CC3OC[C@@]3(OC(=O)c3ccccc3)[C@H]2[C@H](OC(C)=O)[C@]2(O)C[C@H](OC(=O)[C@H](O)[C@@H](NC(=O)c3ccccc3)c3ccccc3)C(C)=C1C2(C)C` (stereo partly specified), the outcome was inactive.
